Data taken from ChEMBL document CHEMBL3046565, “Fungicidal and herbicidal activities of berberine related alkaloids” (2000).

Assays:
Assay type in all cases: functional
[1] = system: Phytophthora infestans; assay: microbe, parasite or virus in culture; conditions: in Oryza sativa, 24 h
[2] = system: Rhizoctonia solani; assay: Antifungal activity against Rhizoctonia solani on rice plant at 25 ppm after 24 hr
[3] = system: Blumeria graminis f. sp. tritici; assay: Antifungal activity against Blumeria graminis f. sp. tritici on wheat plant assessed as disease control at 100 ppm after 24 hr
[4] = system: Pyricularia oryzae; assay: microbe, parasite or virus in culture; conditions: 24 h
[5] = system: Puccinia recondita; assay: Antifungal activity against Puccinia recondita on wheat plant assessed as disease control at 100 ppm after 24 hr
[6] = system: Agrostis stolonifera var. palustris; assay: Herbicidal activity against Agrostis stolonifera var. palustris at 1 ppm after 9 days relative to control
[7] = system: Parastagonospora nodorum; assay: Antifungal activity against Phaeosphaeria nodorum on wheat plant at 25 ppm after 24 hr
[8] = system: Lemna minor; assay: Herbicidal activity against Lemna minor (common duckweed) at 1 ppm after 9 days relative to control
[9] = system: Ustilago maydis; assay: Antifungal activity against Ustilago maydis on rice plant at 25 ppm after 24 hr; conditions: Mycosarcoma maydis
[10] = system: Parastagonospora nodorum; assay: Antifungal activity against Phaeosphaeria nodorum on wheat plant assessed as disease control at 100 ppm after 24 hr
[11] = system: Zymoseptoria tritici; assay: Antifungal activity against Zymoseptoria tritici on wheat plant at 25 ppm after 24 hr

Row | Structure (SMILES) | inhibition at 25 ppm [1] | inhibition at 25 ppm [2] | Activity [3] | inhibition at 25 ppm [4] | Activity [5] | Activity [6] | inhibition at 25 ppm [7] | Activity [8] | inhibition at 25 ppm [9] | Activity [10] | inhibition at 25 ppm [11]
1 | COc1ccc2c(c1OC)C[N+]1(C)CCc3cc4c(cc3C1=C2C)OCO4.[Cl-] (configuration not stated) | 0% | 0% | 0% | 0% | 0% | 0% | 0% | 0% | 40% | 0% | 0%
2 | COc1ccc2c(c1OC)CN1CCc3cc4c(cc3[C@@H]1[C@@H]2C)OCO4.Cl | 0% | 0% | 0% | 0% | 0% | 0% | 0% | 0% | 0% | 0% | 0%
3 | COc1ccc2c(c1OC)CN1CCc3cc4c(cc3[C@@H]1[C@H]2O)OCO4.Cl | 0% | 0% | 0% | 0% | 0% | 0% | 0% | 0% | 0% | 0% | 0%
4 | COc1ccc2c(c1OC)C[N@@+]1(C)CCc3cc4c(cc3[C@@H]1[C@@H]2C)OCO4.[Cl-] | 0% | 0% | 0% | 0% | 0% | 0% | 0% | 0% | 0% | 0% | 0%
5 | COc1ccc2c(c1OC)C[N@+]1(C)CCc3cc4c(cc3[C@@H]1[C@H]2O)OCO4.[Cl-] | 0% | 0% | 0% | 0% | 0% | 0% | 0% | 0% | 0% | 0% | 0%
6 | COc1ccc2c(c1OC)C[N@@+]1(C)CCc3cc4c(cc3[C@@H]1[C@H]2O)OCO4.[Cl-] | 0% | 0% | 0% | 0% | 0% | 0% | 0% | 0% | 0% | 0% | 0%
7 | COc1cc2c(cc1OC)-c1c(C)c3ccc(OC)c(OC)c3c[n+]1CC2.[Cl-] | 0% | 0% | 0% | 0% | 0% | 0% | 0% | 65% | 0% | 0% | 0%
8 | CCc1c2[n+](cc3c(OC)c(OC)ccc13)CCc1cc(OC)c(OC)cc1-2.[Cl-] | 0% | 0% | 0% | 0% | 0% | 0% | 0% | 70% | 0% | 0% | 0%
9 | CCCc1c2[n+](cc3c(OC)c(OC)ccc13)CCc1cc(OC)c(OC)cc1-2.[Cl-] | 0% | 0% | 0% | 0% | 0% | 0% | 0% | 65% | 0% | 73% | 0%
10 | CCCCc1c2[n+](cc3c(OC)c(OC)ccc13)CCc1cc(OC)c(OC)cc1-2.[Cl-] | 0% | 0% | 0% | 0% | 0% | 0% | 0% | 65% | 0% | 73% | 90%
11 | CCCCc1c2[n+](cc3c(OC)c(OC)ccc13)CCc1cc3c(cc1-2)OCO3.[Cl-] | 0% | 0% | 0% | 0% | 0% | 0% | 0% | 60% | 0% | 67% | 90%
12 | CCCCCCc1c2[n+](cc3c(OC)c(OC)ccc13)CCc1cc3c(cc1-2)OCO3.[Cl-] | 0% | 0% | 0% | 0% | 83% | 0% | 0% | 60% | 0% | 87% | 100%
13 | CCCc1c2[n+](cc3c(OC)c(OC)ccc13)CCc1cc3c(cc1-2)OCO3.[Cl-] | 0% | 0% | 0% | 0% | 0% | 0% | 0% | 65% | 0% | 67% | 90%
14 | COc1ccc2c(C)c3[n+](cc2c1OC)CCc1cc2c(cc1-3)OCO2.[Cl-] | 0% | 0% | 0% | 0% | 75% | 0% | 0% | 75% | 0% | 0% | 80%
15 | CCc1c2[n+](cc3c(OC)c(OC)ccc13)CCc1cc3c(cc1-2)OCO3.[Cl-] | 0% | 0% | 0% | 0% | 58% | 0% | 0% | 70% | 0% | 60% | 90%
16 | CCOc1c(OC)ccc2c(CC)c3[n+](cc12)CCc1cc2c(cc1-3)OCO2.[Cl-] [9-O-ETHYL-13-ETHYLBERBERRUBINE] | 0% | 0% | 0% | 0% | 8% | 0% | 0% | 70% | 0% | 87% | 90%
17 | CCOc1c(OC)ccc2cc3[n+](cc12)CCc1cc2c(cc1-3)OCO2.[Cl-] [9-O-ETHYLBERBERRUBINE] | 0% | 0% | 0% | 0% | 75% | 0% | 0% | 70% | 0% | 0% | 90%
18 | CCCCCCc1c2[n+](cc3c(OC)c(OC)ccc13)CCc1cc(OC)c(OC)cc1-2.[Cl-] [13-HEXYLPALMATINE] | 0% | 0% | 0% | 0% | 67% | 0% | 0% | 70% | 0% | 80% | 100%
19 | COc1ccc2c(O)c3[n+](cc2c1OC)CCc1cc2c(cc1-3)OCO2.[Cl-] [13-HYDROXYBERBERINE] | 40% | 0% | 41% | 0% | 67% | 0% | 0% | 0% | 0% | 0% | 0%
20 | COc1ccc2cc3[n+](cc2c1OC)CCc1cc2c(cc1-3)OCO2.[Cl-] [BERBERINE CHLORIDE] | 0% | 0% | 0% | 0% | 0% | 0% | 0% | 75% | 0% | 0% | 90%
21 | COc1ccc2cc3[n+](cc2c1O)CCc1cc2c(cc1-3)OCO2 [BERBERRUBINE] | 0% | 0% | 0% | 0% | 0% | 0% | 0% | 0% | 0% | 0% | 0%
22 | COc1cc2c(cc1OC)-c1cc3ccc(OC)c(OC)c3c[n+]1CC2.[Cl-] [PALMATINE CHLORIDE] | 0% | 0% | 0% | 0% | 0% | 0% | 0% | 0% | 0% | 0% | 80%
